Measurements reported in patent US20090082203A1, “INSECTICIDAL BIS(SUBSTITUTED PHENYL)-1-{[4-(SATURATED HETEROCYCLYL-SUBSTITUTED)PHENYLMETHYL]- (4-PIPERIDYL)}METHANE DERIVATIVES” (priority 2004, published 2009).

Test system: tobacco budworm (Heliothis virescens [Fabricius])
Test: surface-treated diet test against tobacco budworm
Assay type: in vivo
Conditions: for Percent Growth Inhibition: inhibition of insect weight relative to untreated controls
Protocol: Candidate insecticides were evaluated for activity against the tobacco budworm (Heliothis virescens [Fabricius]) in a surface-treated diet test.
In this test one mL of molten (65-70° C.) wheat germ-based artificial diet was pipetted into each well of a four by six (24 well) multi-well plate (ID# 430345-15.5 mm dia.×17.6 mm deep; Corning Costar Corp., One Alewife Center, Cambridge, Mass. 02140). The diet was allowed to cool to ambient temperature before treatment with candidate insecticide.
For a determination of insecticidal activity, solutions of the candidate insecticides were prepared for testing using a Packard 204DT Multiprobe® Robotic System (Packard Instrument Company, 800 Research Parkway, Meriden, Conn. 06450), in which the robot first diluted a standard 50 millimolar DMSO solution of candidate insecticide with a 1:1 water/acetone solution (V/V) in a ratio of 1:7 stock solution to water/acetone. The robot subsequently pipetted 40 microliters of the so-prepared solution onto the surface of the diet in each of three wells in the 24 multi-well plate. The process was repeated with solutions of seven other candidate insecticides. Once treated, the contents of the multi-well plate were allowed to dry, leaving 0.25 millimoles of candidate insecticide on the surface of the diet, or a concentration of 0.25 millimolar. Appropriate untreated controls containing only DMSO on the diet surface were also included in this test.
For evaluations of the insecticidal activity of a candidate insecticide at varying rates of application, the test was established as described above using sub-multiples of the standard 50 millimolar DMSO solution of candidate insecticide. For example, the standard 50 millimolar solution was diluted by the robot with DMSO to give 5, 0.5, 0.05, 0.005, 0.0005 millimolar, or more dilute solutions of the candidate insecticide. In these evaluations there were six replicates of each rate of application placed on the surface of the diet in the 24 multi-well plate, for a total of four rates of application of candidate insecticide in each plate.
In each well of the test plate was placed one second instar tobacco budworm larvae, each weighing approximately five milligrams. After the larvae were placed in each well, the plate was sealed with clear polyfilm adhesive tape. The tape over each well was perforated to ensure an adequate air supply. The plates were then held in a growth chamber at 25° C. and 60% relative humidity for five days (light 14 hours/day).
After the five-day exposure period insecticidal activity for each rate of application of candidate insecticide was assessed as percent inhibition of insect weight relative to the weight of insects from untreated controls, and percent mortality when compared to the total number of insects infested.
The test compounds of formula I are identified by numbers that correspond to those in Table 1.

[1] = 0.25 millimolar on the surface of the diet, second instar larvae, five-day exposure, compared to the total number of insects infested
[2] = 0.25 millimolar on the surface of the diet, second instar larvae, five-day exposure

| Molecule | Percent Mortality [1] | Percent Growth Inhibition [2] | Percent Mortality (in vivo) |
| --- | --- | --- | --- |
| [O-][N+]1(Cc2ccc(C3OCCC(c4ccccc4)O3)cc2)CCC(C(O)(c2ccc(OC(F)(F)F)cc2)c2ccc(OC(F)(F)F)cc2)CC1 (stereo not shown) [Compound 79] | 100% | 100% |  |
| CC1(c2ccc(CN3CCC(C(O)(c4ccc(OC(F)(F)F)cc4)c4ccc(OC(F)(F)F)cc4)CC3)cc2)OCCO1 [Compound 8] | 100% | 100% |  |
| NC1(CO)COC(c2ccc(CN3CCC(C(O)(c4ccc(OC(F)(F)F)cc4)c4ccc(OC(F)(F)F)cc4)CC3)cc2)OC1 (stereo not shown) [Compound 107] | 100% | 100% |  |
| CC(=O)N1CCSC1c1ccc(CN2CCC(C(O)(c3ccc(OC(F)(F)F)cc3)c3ccc(OC(F)(F)F)cc3)CC2)cc1 (stereo not shown) [Compound 71] | 33% | 100% |  |
| OC(c1ccc(OC(F)(F)F)cc1)(c1ccc(OC(F)(F)F)cc1)C1CCN(Cc2ccc(C3OCCO3)c(Cl)c2)CC1 [Compound 171] | 100% | 100% |  |
| [O-][N+]1(Cc2ccc(C3(COc4ccccc4)OCCO3)cc2)CCC(C(O)(c2ccc(OC(F)(F)F)cc2)c2ccc(OC(F)(F)F)cc2)CC1 (stereo not shown) [Compound 67] | 100% | 100% |  |
| CC1(C)COC(c2ccc(C[N+]3([O-])CCC(C(O)(c4ccc(OC(F)(F)F)cc4)c4ccc(OC(F)(F)F)cc4)CC3)cc2)O1 (stereo not shown) [Compound 112] | 100% | 100% |  |
| CC1OC(c2ccc(CN3CCC(C(O)(c4ccc(OC(F)(F)F)cc4)c4ccc(OC(F)(F)F)cc4)CC3)cc2)OC1C (stereo not shown) [Compound 121] | 100% | 100% |  |
| bis(4-trifluoromethoxyphenyl])(1-{[4-(1,3-dioxan-2-ylmethoxy)phenyl]methyl}(4-piperidyl))methan-1-ol, N-oxide [Compound 200] | 100% | 100% |  |
| [O-][N+]1(Cc2ccc(C3(Cc4ccccc4)OCCO3)cc2)CCC(C(O)(c2ccc(OC(F)(F)F)cc2)c2ccc(OC(F)(F)F)cc2)CC1 (stereo not shown) [Compound 65] | 67% | 100% |  |
| CCC1COC(COc2ccc(CN3CCC(C(O)(c4ccc(OC(F)(F)F)cc4)c4ccc(OC(F)(F)F)cc4)CC3)cc2)O1 (stereo not shown) [Compound 196] | 100% | 100% |  |
| [O-][N+]1(Cc2ccc(C3COCO3)cc2)CCC(C(O)(c2ccc(OC(F)(F)F)cc2)c2ccc(OC(F)(F)F)cc2)CC1 (stereo not shown) [Compound 104] | 100% | 100% |  |
| CCCCN1CCSC1c1ccc(CN2CCC(C(O)(c3ccc(OC(F)(F)F)cc3)c3ccc(OC(F)(F)F)cc3)CC2)cc1 (stereo not shown) [Compound 59] | 100% | 100% |  |
| CC1(c2ccc(CN3CCC(C(O)(c4ccc(OC(F)(F)F)cc4)c4ccc(OC(F)(F)F)cc4)CC3)cc2)OCCCO1 [Compound 11] | 100% | 100% |  |
| OC(c1ccc(OC(F)(F)F)cc1)(c1ccc(OC(F)(F)F)cc1)C1CCN(Cc2ccc(C3O[C@H]4CCCC[C@H]4O3)cc2)CC1 (stereo partly shown) [Compound 115] | 100% | 100% |  |
| CC1COC(c2ccc(CN3CCC(C(O)(c4ccc(Cl)c(Cl)c4)c4ccc(Cl)c(Cl)c4)CC3)cc2)O1 (stereo not shown) [Compound 176] | 100% | 100% |  |
| OC(c1ccc(OC(F)(F)F)cc1)(c1ccc(OC(F)(F)F)cc1)C1CCN(Cc2ccc(C3OC4CCCCC4O3)cc2)CC1 (stereo not shown) [Compound 127] | 100% | 100% |  |
| [O-][N+]1(Cc2ccc(C3OCCO3)c(Cl)c2)CCC(C(O)(c2ccc(OC(F)(F)F)cc2)c2ccc(OC(F)(F)F)cc2)CC1 (stereo not shown) [Compound 181] | 100% | 100% |  |
| CC1(C)OC(c2ccc(C[N+]3([O-])CCC(C(O)(c4ccc(OC(F)(F)F)cc4)c4ccc(OC(F)(F)F)cc4)CC3)cc2)OC1(C)C (stereo not shown) [Compound 126] | 100% | 100% |  |

| Molecule | Percent Mortality [1] | Percent Growth Inhibition [2] | Percent Mortality (in vivo) |
| --- | --- | --- | --- |
| CC1(C)COC(c2ccc(CN3CCC(C(O)(c4ccc(OC(F)(F)F)cc4)c4ccc(OC(F)(F)F)cc4)CC3)cc2)OC1 [Compound 39] | 100% | 100% |  |
| COCC1COC(COc2ccc(C[N+]3([O-])CCC(C(O)(c4ccc(OC(F)(F)F)cc4)c4ccc(OC(F)(F)F)cc4)CC3)cc2)O1 (stereo not shown) [Compound 197] | 100% | 100% |  |
| OC(c1ccc(OC(F)(F)F)cc1)(c1ccc(OC(F)(F)F)cc1)C1CCN(Cc2ccc(CC3OCCO3)cc2)CC1 [Compound 183] | 100% | 100% |  |
| C=CC1COC(c2ccc(C[N+]3([O-])CCC(C(O)(c4ccc(OC(F)(F)F)cc4)c4ccc(OC(F)(F)F)cc4)CC3)cc2)O1 (stereo not shown) [Compound 86] | 100% | 100% |  |
| CC1(C)CCOC(c2ccc(C[N+]3([O-])CCC(C(O)(c4ccc(OC(F)(F)F)cc4)c4ccc(OC(F)(F)F)cc4)CC3)cc2)O1 (stereo not shown) [Compound 70] | 100% | 100% |  |
| OC(c1ccc(OC(F)(F)F)cc1)(c1ccc(OC(F)(F)F)cc1)C1CCN(Cc2ccc(C3(Cc4ccccc4)OCCO3)cc2)CC1 [Compound 66] | 67% | 100% |  |
| Cc1cc(C[N+]2([O-])CCC(C(O)(c3ccc(OC(F)(F)F)cc3)c3ccc(OC(F)(F)F)cc3)CC2)ccc1C1OCCO1 (stereo not shown) [Compound 170] |  | 100% | 100% |
| CCCC1COC(c2ccc(C[N+]3([O-])CCC(C(O)(c4ccc(OC(F)(F)F)cc4)c4ccc(OC(F)(F)F)cc4)CC3)cc2)O1 (stereo not shown) [Compound 74] | 100% | 100% |  |
| C[C@H]1OC(c2ccc(CN3CCC(C(O)(c4ccc(OC(F)(F)F)cc4)c4ccc(OC(F)(F)F)cc4)CC3)cc2)O[C@@H]1C (relative stereo) [Compound 120] | 100% | 100% |  |
| OC(c1ccc(Cl)c(Cl)c1)(c1ccc(Cl)c(Cl)c1)C1CCN(Cc2ccc(C3OCCO3)cc2)CC1 [Compound 145] | 100% | 100% |  |
| [O-][N+]1(Cc2ccc(C3O[C@H]4CCC[C@H]4O3)cc2)CCC(C(O)(c2ccc(OC(F)(F)F)cc2)c2ccc(OC(F)(F)F)cc2)CC1 (stereo partly shown) [Compound 123] | 100% | 100% |  |
| OC(c1ccc(OC(F)(F)F)cc1)(c1ccc(OC(F)(F)F)cc1)C1CCN(Cc2ccc(OCC3(c4ccccc4)OCCO3)cc2)CC1 [Compound 186] | 100% | 100% |  |
| [O-][N+]1(Cc2ccc(C3O[C@H]4COC[C@H]4O3)cc2)CCC(C(O)(c2ccc(OC(F)(F)F)cc2)c2ccc(OC(F)(F)F)cc2)CC1 (stereo partly shown) [Compound 118] | 100% | 100% |  |
| [O-][N+]1(Cc2ccc(C3O[C@H]4CCCC[C@H]4O3)cc2)CCC(C(O)(c2ccc(OC(F)(F)F)cc2)c2ccc(OC(F)(F)F)cc2)CC1 (stereo partly shown) [Compound 117] | 100% | 100% |  |
| CC(C)(C)C1COC(c2ccc(CN3CCC(C(O)(c4ccc(OC(F)(F)F)cc4)c4ccc(OC(F)(F)F)cc4)CC3)cc2)O1 (stereo not shown) [Compound 50] | 100% | 100% |  |
| OC(c1ccc(OC(F)(F)F)cc1)(c1ccc(OC(F)(F)F)cc1)C1CCN(Cc2ccc(C3OCCO3)c(F)c2)CC1 [Compound 173] | 100% | 100% |  |
| CN1CCOC1c1ccc(CN2CCC(C(O)(c3ccc(OC(F)(F)F)cc3)c3ccc(OC(F)(F)F)cc3)CC2)cc1 (stereo not shown) [Compound 90] | 100% | 100% |  |
| CC1COC(c2ccc(CN3CCC(C(c4ccc(OC(F)(F)F)cc4)c4ccc(OC(F)(F)F)cc4)CC3)cc2)O1 (stereo not shown) [Compound 178] | 100% | 100% |  |
| CCC1COC(c2ccc(C[N+]3([O-])CCC(C(O)(c4ccc(OC(F)(F)F)cc4)c4ccc(OC(F)(F)F)cc4)CC3)cc2)O1 (stereo not shown) [Compound 62] | 100% | 100% |  |
